The source of these data is ChEMBL document CHEMBL1147238, “Komodoquinone A, a novel neuritogenic anthracycline, from marine Streptomyces sp. KS3” (J Nat Prod, 2003).

For assay [1], the system named is N2a. Kind of assay: Neuritogenic activity in mouse Neuro2a cells assessed as morphological changes at 1 ug/mL after 24 or 48 hrs. Type of assay: functional, cell-based.
Assay [2] relates to N2a. The experiment in a line: Neuritogenic activity in mouse Neuro2a cells assessed as morphological changes at 3 ug/mL after 24 or 48 hrs. The class given is functional, cell-based.

Calls of active or inactive are those of the source. No cut-off for these calls is given here.

As to `C[C@@H]1O[C@@H](Oc2cccc3c2C(=O)c2c(O)c4c(c(O)c2C3=O)C[C@](C)(O)C[C@@H]4O)[C@@H](O)[C@H](N(C)C)[C@@H]1O`, the result in the assay with N2a [1] was Active. Consider `COc1cccc2c1C(=O)c1c(O)c3c(c(O)c1C2=O)C[C@@](O)(C(=O)CO)C[C@@H]3O[C@H]1C[C@H](N)[C@H](O)[C@H](C)O1`, for which the result with N2a [2] was inactive.
